Here are results for 2 substances from article PMC8675232 (Frontiers in Pharmacology, 2021).

The conditions of data set [1]: in vivo; cited from earlier work.
Data set [2] concerns healthy Chinese male volunteers. The experiment in a line: Pharmacodynamics (glucose infusion rate) in 24-h euglycemic clamp. It is filed as in vivo. As to conditions: 0.4 IU/kg s.c. single dose, mean ± SD. The procedure:
The volunteers were screened and qualified for the entry standard. […] During the trial, volunteers were requested to avoid strenuous exercises, smoking, drinking alcohol, or caffeinated drinks (e.g., tea and coffee). […] C-peptide reduction rate <30%; group B: […] The trial was carried out in accordance with the principles of the Declaration of Helsinki. This study was approved by the Ethics Committee of the First Affiliated Hospital of ChongQing Medical University (No. 20190101). All recruited volunteers underwent a single-dose euglycemic clamp test. Participants arrived at the ward on the day prior to the clamp test to ensure a 10-h fasting condition and to maintain fasting during euglycemic clamping. […] Intravenous access was obtained in one arm for a 20% glucose infusion and in the other for blood drawing. The arm for blood drawing was heated using a warming blanket to arterialize venous blood (55-65°C). […] Basal glucose (BG) was defined as the average blood glucose level before injection; the target glucose (TG) level was defined as the BG minus 0.28 mmol/[…] al., 2015b]); and we controlled the blood glucose concentration as close as possible to the TG level. The glucose infusion rate (GIR) was manually adjusted by investigators to maintain blood glucose at the target value. […] SPSS 22.0 and WinNonlin 8.1 were used for statistical analysis. […] The oscillation of glucose was calculated with formula 1-Gt (glucose at time t)/Gd (desired glucose). […] The pharmacodynamic parameters were area under the glucose infusion rate versus time curve (AUCGIR0-24 h), peak of glucose infusion rate (GIRmax), and time to […]).

The mark [3] stands for this setting: group A (C-peptide reduction <30%, n = 13).
Setting [4] is: group B (C-peptide reduction ≥30% and <50%, n = 15).
[5] abbreviates: group C (C-peptide reduction ≥50%, n = 11).

A word on the half-life: it is how long it takes for the measured level to halve. C-peptide: in data set [1], the half-life was 20 to 30 min.

insulin glargine: the “AUCGIR0–24 h” value in data set [2] (setting [3]) is listed as 3175.9 ± 1135.2 mg/kg; in data set [2] (setting [4]), 2862.9 ± 1176.0 mg/kg; in data set [2] (setting [5]), 2526.1 ± 1222.0 mg/kg. Besides, the GIRmax is reported as 3.5 ± 1.3 mg/kg/min in data set [2] (setting [3]), 3.4 ± 1.4 mg/kg/min in data set [2] (setting [4]) and 3.0 ± 1.5 mg/kg/min in data set [2] (setting [5]). The TGIRmax is 593.1 ± 198.1 min in data set [2] (setting [3]), 584.0 ± 199.1 min in data set [2] (setting [4]) and 756.4 ± 228.0 min in data set [2] (setting [5]).
